ChEMBL document CHEMBL3885861, “Open TG-GATES”

Species: Rattus norvegicus
Assay: Open TG-GATES - Regimen: Daily Repeat
Type: toxicity, organism-based, Sprague-Dawley
Set-up: regimen Daily Repeat, gender Male, age 6 weeks
Conditions: in vivo, po, route gavage; for APTT / Bas / Eos / Fbg / Hb / Ht / Lym / MCHC / MCV / Mono / Neu / PT / Plat / RBC / Ret / WBC: tissue Blood; for KIDNEY_L / KIDNEY_R / KIDNEY_TOTAL: tissue Kidney; for LIVER: tissue Liver; for ALP / ALT / AST / BUN / CRE / Ca / Cl / DBIL / GLC / IP / K / LDH / Na / PL / RALB / TBIL / TC / TG / TP / gamma-GTP: tissue Plasma
[1] = 50 mg/kg, 72 h, dose level Middle, time 3 day
[2] = 50 mg/kg, […], dose level Middle, time 7 day
[3] = 50 mg/kg, […], dose level Middle, time 14 day
[4] = 50 mg/kg, […], dose level Middle, time 28 day
[5] = 150 mg/kg, 72 h, dose level High, time 3 day
[6] = 150 mg/kg, […], dose level High, time 7 day
[7] = 150 mg/kg, […], dose level High, time 14 day
[8] = 150 mg/kg, […], dose level High, time 28 day

## C1CCC(C(CC2CCCCN2)C2CCCCC2)CC1 (stereo not drawn) [PERHEXILINE]
[1]
  TERMINAL_BW: 222.3 g
  APTT: 19.9 s
  Bas: 0%
  Eos: 1%
  Fbg: 339.8 mg/dL
  Hb: 13.5 g/dL
  Ht: 40.4%
  Lym: 72.2%
  MCHC: 33.4%
  MCV: 62.8 fL
  Mono: 2.2%
  Neu: 23.2%
  PT: 16.5 s
  Plat: 125.7 x10_4/uL
  RBC: 643.2 x10_4/ul
  Ret: 6.1%
  WBC: 117.4 x10_2/uL
  KIDNEY_L: 1 g
  KIDNEY_R: 1 g
  KIDNEY_TOTAL: 2.1 g
  LIVER: 10.7 g
  ALP: 1647.4 IU/L
  ALT: 40 IU/L
  AST: 70.2 IU/L
  BUN: 13.6 mg/dL
  CRE: 0.1 mg/dL
  Ca: 10.8 mg/dL
  Cl: 107 meq/L
  DBIL: 0 mg/dL
  GLC: 184.8 mg/dL
  IP: 7.6 mg/dL
  K: 4.1 meq/L
  LDH: 241.2 IU/L
  Na: 141.8 meq/L
  PL: 146.8 mg/dL
  RALB: 3 g/dL
  TBIL: 0.008 mg/dL
  TC: 72.8 mg/dL
  TG: 125 mg/dL
  TP: 5.6 g/dL
  gamma-GTP: 0.8 IU/L
[2]
  TERMINAL_BW: 248.7 g
  APTT: 22.2 s
  Bas: 0%
  Eos: 0.6%
  Fbg: 314 mg/dL
  Hb: 14.1 g/dL
  Ht: 41.6%
  Lym: 79.8%
  MCHC: 33.9%
  MCV: 62.6 fL
  Mono: 1.6%
  Neu: 16.6%
  PT: 15.8 s
  Plat: 113.7 x10_4/uL
  RBC: 666.4 x10_4/ul
  Ret: 4.7%
  WBC: 85.4 x10_2/uL
  KIDNEY_L: 1 g
  KIDNEY_R: 1 g
  KIDNEY_TOTAL: 2.1 g
  LIVER: 11.3 g
  ALP: 1686.4 IU/L
  ALT: 38.8 IU/L
  AST: 67 IU/L
  BUN: 18 mg/dL
  CRE: 0.2 mg/dL
  Ca: 10.5 mg/dL
  Cl: 106.2 meq/L
  DBIL: 0 mg/dL
  GLC: 202 mg/dL
  IP: 7.3 mg/dL
  K: 4.1 meq/L
  LDH: 192 IU/L
  Na: 142.8 meq/L
  PL: 166.2 mg/dL
  RALB: 3.1 g/dL
  TBIL: 0.004 mg/dL
  TC: 78.4 mg/dL
  TG: 181 mg/dL
  TP: 5.8 g/dL
  gamma-GTP: 1 IU/L
[3]
  TERMINAL_BW: 302.3 g
  APTT: 23.1 s
  Bas: 0%
  Eos: 0.4%
  Fbg: 303 mg/dL
  Hb: 14 g/dL
  Ht: 40.8%
  Lym: 82.2%
  MCHC: 34.3%
  MCV: 61.7 fL
  Mono: 1.4%
  Neu: 15%
  PT: 15.8 s
  Plat: 118.8 x10_4/uL
  RBC: 662.8 x10_4/ul
  Ret: 5.3%
  WBC: 116.6 x10_2/uL
  KIDNEY_L: 1.2 g
  KIDNEY_R: 1.2 g
  KIDNEY_TOTAL: 2.3 g
  LIVER: 12.9 g
  ALP: 1470.4 IU/L
  ALT: 42.2 IU/L
  AST: 76.6 IU/L
  BUN: 18.6 mg/dL
  CRE: 0.2 mg/dL
  Ca: 10.7 mg/dL
  Cl: 107.4 meq/L
  DBIL: 0 mg/dL
  GLC: 209.8 mg/dL
  IP: 6.5 mg/dL
  K: 4.2 meq/L
  LDH: 231.4 IU/L
  Na: 143.2 meq/L
  PL: 155.2 mg/dL
  RALB: 3 g/dL
  TBIL: 0.002 mg/dL
  TC: 72.2 mg/dL
  TG: 178.6 mg/dL
  TP: 5.8 g/dL
  gamma-GTP: 1.6 IU/L
[4]
  TERMINAL_BW: 361.8 g
  APTT: 22.2 s
  Bas: 0%
  Eos: 0.6%
  Fbg: 314 mg/dL
  Hb: 14.1 g/dL
  Ht: 41.6%
  Lym: 79.8%
  MCHC: 33.9%
  MCV: 62.6 fL
  Mono: 1.6%
  Neu: 16.6%
  PT: 15.8 s
  Plat: 113.7 x10_4/uL
  RBC: 666.4 x10_4/ul
  Ret: 4.7%
  WBC: 85.4 x10_2/uL
  KIDNEY_L: 1.3 g
  KIDNEY_R: 1.3 g
  KIDNEY_TOTAL: 2.5 g
  LIVER: 15 g
  ALP: 1171.8 IU/L
  ALT: 39.8 IU/L
  AST: 67.2 IU/L
  BUN: 18.8 mg/dL
  CRE: 0.2 mg/dL
  Ca: 10.4 mg/dL
  Cl: 107 meq/L
  DBIL: 0 mg/dL
  GLC: 209.2 mg/dL
  IP: 6.6 mg/dL
  K: 4 meq/L
  LDH: 186.8 IU/L
  Na: 143 meq/L
  PL: 156.4 mg/dL
  RALB: 3.1 g/dL
  TBIL: 0.004 mg/dL
  TC: 71.6 mg/dL
  TG: 157.4 mg/dL
  TP: 6.1 g/dL
  gamma-GTP: 1.4 IU/L
[5]
  TERMINAL_BW: 212.7 g
  APTT: 22.7 s
  Bas: 0%
  Eos: 0.8%
  Fbg: 312.8 mg/dL
  Hb: 13.9 g/dL
  Ht: 41.3%
  Lym: 80%
  MCHC: 33.8%
  MCV: 61.4 fL
  Mono: 1.8%
  Neu: 16.5%
  PT: 16.8 s
  Plat: 130.8 x10_4/uL
  RBC: 673.2 x10_4/ul
  Ret: 4.4%
  WBC: 100 x10_2/uL
  KIDNEY_L: 1 g
  KIDNEY_R: 0.9 g
  KIDNEY_TOTAL: 1.9 g
  LIVER: 9.8 g
  ALP: 1606.6 IU/L
  ALT: 43.6 IU/L
  AST: 69 IU/L
  BUN: 15.4 mg/dL
  CRE: 0.2 mg/dL
  Ca: 11 mg/dL
  Cl: 106.6 meq/L
  DBIL: 0.002 mg/dL
  GLC: 187.2 mg/dL
  IP: 7.4 mg/dL
  K: 4 meq/L
  LDH: 267.2 IU/L
  Na: 142.4 meq/L
  PL: 150 mg/dL
  RALB: 3 g/dL
  TBIL: 0.006 mg/dL
  TC: 75.6 mg/dL
  TG: 107.8 mg/dL
  TP: 5.4 g/dL
  gamma-GTP: 1 IU/L
[6]
  TERMINAL_BW: 255.5 g
  APTT: 23.3 s
  Bas: 0%
  Eos: 0.6%
  Fbg: 313.8 mg/dL
  Hb: 14.3 g/dL
  Ht: 42.2%
  Lym: 79%
  MCHC: 33.9%
  MCV: 63.4 fL
  Mono: 1.4%
  Neu: 17.8%
  PT: 15.5 s
  Plat: 120.2 x10_4/uL
  RBC: 665.4 x10_4/ul
  Ret: 5.2%
  WBC: 103.4 x10_2/uL
  KIDNEY_L: 1.1 g
  KIDNEY_R: 1.2 g
  KIDNEY_TOTAL: 2.3 g
  LIVER: 11.9 g
  ALP: 1641 IU/L
  ALT: 35 IU/L
  AST: 61.8 IU/L
  BUN: 17.8 mg/dL
  CRE: 0.2 mg/dL
  Ca: 10.6 mg/dL
  Cl: 106.2 meq/L
  DBIL: 0 mg/dL
  GLC: 197.6 mg/dL
  IP: 8.1 mg/dL
  K: 4.3 meq/L
  LDH: 200.4 IU/L
  Na: 142.8 meq/L
  PL: 158.4 mg/dL
  RALB: 3 g/dL
  TBIL: 0.006 mg/dL
  TC: 76 mg/dL
  TG: 138.4 mg/dL
  TP: 5.7 g/dL
  gamma-GTP: 1.4 IU/L
[7]
  TERMINAL_BW: 291.9 g
  APTT: 22.3 s
  Bas: 0%
  Eos: 0.8%
  Fbg: 311 mg/dL
  Hb: 14.4 g/dL
  Ht: 41.8%
  Lym: 72%
  MCHC: 34.4%
  MCV: 59.9 fL
  Mono: 2.2%
  Neu: 24%
  PT: 15.8 s
  Plat: 115.8 x10_4/uL
  RBC: 697.8 x10_4/ul
  Ret: 4.7%
  WBC: 121.2 x10_2/uL
  KIDNEY_L: 1.2 g
  KIDNEY_R: 1.2 g
  KIDNEY_TOTAL: 2.4 g
  LIVER: 13 g
  ALP: 1470.2 IU/L
  ALT: 38 IU/L
  AST: 63.2 IU/L
  BUN: 18.2 mg/dL
  CRE: 0.2 mg/dL
  Ca: 10.7 mg/dL
  Cl: 105.8 meq/L
  DBIL: 0.004 mg/dL
  GLC: 206.6 mg/dL
  IP: 7.2 mg/dL
  K: 4.2 meq/L
  LDH: 180.2 IU/L
  Na: 143 meq/L
  PL: 151.8 mg/dL
  RALB: 3 g/dL
  TBIL: 0.008 mg/dL
  TC: 70 mg/dL
  TG: 154.6 mg/dL
  TP: 5.8 g/dL
  gamma-GTP: 1.2 IU/L
[8]
  TERMINAL_BW: 322.6 g
  APTT: 23.3 s
  Bas: 0%
  Eos: 0.6%
  Fbg: 313.8 mg/dL
  Hb: 14.3 g/dL
  Ht: 42.2%
  Lym: 79%
  MCHC: 33.9%
  MCV: 63.4 fL
  Mono: 1.4%
  Neu: 17.8%
  PT: 15.5 s
  Plat: 120.2 x10_4/uL
  RBC: 665.4 x10_4/ul
  Ret: 5.2%
  WBC: 103.4 x10_2/uL
  KIDNEY_L: 1.2 g
  KIDNEY_R: 1.2 g
  KIDNEY_TOTAL: 2.5 g
  LIVER: 12.8 g
  ALP: 1254 IU/L
  ALT: 39.8 IU/L
  AST: 62.8 IU/L
  BUN: 16 mg/dL
  CRE: 0.2 mg/dL
  Ca: 10.4 mg/dL
  Cl: 107.2 meq/L
  DBIL: 0 mg/dL
  GLC: 199.2 mg/dL
  IP: 6.4 mg/dL
  K: 4 meq/L
  LDH: 162.8 IU/L
  Na: 144.2 meq/L
  PL: 148 mg/dL
  RALB: 3 g/dL
  TBIL: 0.006 mg/dL
  TC: 68 mg/dL
  TG: 150.4 mg/dL
  TP: 5.9 g/dL
  gamma-GTP: 1 IU/L
